The source of these data is article PMC6698794, “Catalytic Knockdown of miR-21 by Artificial Ribonuclease: Biological Performance in Tumor Model” (Frontiers in Pharmacology, 2019).

Data set [1] relates to PTEN. Briefly: PTEN protein level in transfected RLS40 cells by Western blot. The format is cell-based, mouse. The settings on record: 1 µM, 72 h after transfection, GAPDH internal control. As for the experimental part:
(§1) RLS40 ascites were taken from CBA mice intraperitoneally injected with tumor cells (2 × 10^6 in 0.2 ml buffered saline) into their abdominal cavities. RLS40 cells, isolated from ascites fluid by filtration through LSM were divided into seven portions: 1) untreated cells; 2) the cells incubated with Lipofectamine; the cells transfected with 1 µM of 3) h-ODN, 4) 2′-OMe, 5) Inh, 6) miR-21-miRNase, or 7) luc-POC each. After 4 h of transfection, cell suspensions (0.1 ml, 2 × 10^6 cells) were intramuscularly inoculated into the right lower limb of CBA mice for solid tumor development. As soon as tumors began to be palpable, the tumor volumes were measured every 2–3 days using calipers. Tumor volumes were calculated as V = (π/6 × length × width × height). Hepatic index was estimated as (liver weight/mouse weight) × 100% and as 5.0% for healthy CBA mice. Tumor doubling time (DT) was estimated as DT = (t − t0) × ln 2/(ln V − ln V0), where (t − t0) indicates the length of time between two measurements of tumor size and V0 and V denote the tumor volume at two points of the measurement ([Ozono et al., 2004]).
(§2) Supplementary Figure 3. Expression level of miR-21 and PTEN and PDCD4 protein level in RLS40 cells after transfection with 1 µM of luc-POC or miR-21-miRNase using LipofectamineTM 2000. (A) Expression level of miR-21 24 h after transfection. The expression of miRNAs was normalized to U6. […]
A general note: Immunoblotting shows a protein as a band on a membrane.

The subject of data set [2] is PDCD4. Kind of data set: PDCD4 protein level in transfected RLS40 cells by Western blot. The data set is classed as cell-based, mouse. The settings on record: 1 µM, 72 h after transfection, GAPDH internal control. The procedure:
as §1, §2

Data set [3] has as its system lymphosarcoma cells. The settings on record: ref Patutina et al., 2017a; cited from earlier work. An excerpt:
Short functional non-coding microRNAs are implicated in many types of cancer ([Frixa et al., 2015]; [O’Bryan et al., 2017]; [Zhou et al., 2017]). Amongst many miRNAs identified as important inducers of oncogenesis, miR-21 represents an extreme oncomiR, which is strongly involved in tumor onset and progression for many types of malignancies ([Huang et al., 2013]; [Lianidou et al., 2016]; [Yu et al., 2018]). Since miR-21 is abnormally overexpressed in major types of tumors, this oncomiR is the most considered target for anti-miRNA inhibitory studies. However, depending on the origin of tissue an ...

The subject of data set [4] is B16 melanoma cells. Kind of data set: Annexin V-FITC/PI apoptosis assay. The format is cell-based, mouse. As for the experimental part: B16 cells were pre-seeded (2 × 10^5 per well of 24-well plates) in DMEM/10% FBS a day before transfection. Medium was replaced with serum-free DMEM, prior to incubation for 4 h with h-ODN, 2′-OMe, Inh (hsa-miR-21 5 p inhibitor, Ambion, USA), miR-21-miRNase, or luc-POC, each (0.1 or 1 µM) pre-complexed with Lipofectamine (Thermo Fisher Scientific, USA) in Opti-MEM medium (Thermo Fisher Scientific, USA) according to manufacturer’s instructions, then cells were cultivated in fresh culture standard medium for 24–72 h.
At 24, 48, and 72 h after transfection, cells were harvested, washed twice with PBS, resuspended in Binding Buffer to a density of 2–5 × 10^5/ml, and incubated with annexin V-FITC and propidium iodide (PI) (ab14085, Abcam, UK) in the dark at room temperature for 15 min, prior to flow cytometry analysis (Novocyte CEA Biosciences, USA).
Figure 2 Biological effect of the miR-21-specific miRNase. (A) Apoptotic profile of B16 melanoma cells after transfection with miR-21-miRNase and control luc-POC. Cytofluorimetric analysis of cells after staining with Annexin V-FITC/PI 48 h after transfection with miRNase or luc-POC (1 µM) in complex with Lipofectamine2000. Q1—population of living cells; Q2—Annexin V-FITC+/PI-, early apoptosis; Q3—Annexin V-FITC+/PI+, late apoptosis; Q4—Annexin V-FITC-/PI+, necrosis. (B) Average percentage of apoptotic (early and late apoptosis) and necrotic B16 cell population. Data represent mean ± s.e. of four independent experiments.(C, D) Invasion activity of B16 cells after incubation with Lipofectamine (LF) alone or treated with either hairpin antisense oligonucleotide (h-ODN), hairpin 2′-OMe oligonucleotide (2′-OMe), commercial miR-21 inhibitor (Inh), miR-21-miRNase, and control conjugate (luc-POC) in the concentration of 1 µM. Migration of cells was recorded in real time using the xCELLigence cell analysis system. Control—B16 cells without treatment. Data represent mean ± s.d. of four independent experiments.

Data set [5] is described as follows: Nuclease resistance assay in DMEM with 10% fetal bovine serum. The format is in vitro ADME. The settings on record: 0.1 µg/µl, DMEM with 10% FBS, 37°C; 12% PAAG/8M urea gel, Stains-All. The procedure: Oligonucleotides or conjugates (0.1 µg/µl) were incubated at 37°C in Dulbecco’s Modified Eagle Medium (DMEM) (Sigma, USA) with 10% fetal bovine serum (FBS; GE Healthcare, USA). Reactions were quenched in urea (8M) and immediately frozen in liquid nitrogen, prior to analysis of thawed samples in 12% PAAG/8M urea gels, using Tris-Borate-EDTA (TBE) as running buffer, Stains-All (MP Biomedicals, USA) and photographic gel documentation (VilberLourmat, France).

For “acetyl-[(LeuArg)2Gly]2-aminohexyl-AGTCTGATAAGCTACAAGTCAGCGAAAGCTGACTTG [miR-21-miRNase, peptide acetyl-[(LeuArg)2Gly]2 conjugated through aminohexyl linker to 5′-end of miR-21-targeted hairpin oligodeoxyribonucleotide]”, the “Increase in PTEN protein level” value in data set [1] is reported as 1.7 fold. In data set [2], the “Increase in PDCD4 protein level” value is given as 2.4 fold. In data set [3], the “Inhibition of tumor cell proliferation” value was 50%. Also, in data set [4] (1 µM with Lipofectamine, 24, 48, 72 h after transfection, maximum extent, flow cytometry), the “Necrosis of melanoma B16 cells (Annexin V-FITC-/PI+)” value is listed as “up to 7%”. The “Cells with signs of apoptosis (early and late)” value in data set [4] (1 µM with Lipofectamine, 48 h after transfection (maximum), mean of four independent experiments) worked out at 28%. For the same substance, in data set [4] (1 µM, 48 h after transfection), the “Apoptotic cells relative to intact B16 cells” value is on record as “six”.
“h-ODN: miR-21-targeted hairpin deoxyribooligonucleotide AGTCTGATAAGCTACAAGTCAGCGAAAGCTGACTTG, unconjugated with the peptide (DNA, backbone and methylation of C not given here; hairpin at 3' end, unconjugated)”: the “Survival (intact) in serum-containing medium” value in data set [5] is listed as “a few hours”.
